# From patent US20240285670A1, “THERAPEUTIC TREATMENT OF TUMORS BY BLOCKING THE HEME SYNTHESIS-EXPORT AXIS” (Università degli Studi di Torino, priority 2021, published 2024)
# Columns and labels:
# Format in all cases: cell-based, human
# [1] = tested on: SH-SY5Y cells; assay: Heme content in SHSY-5Y cells
# Text: (A) Frequency (%) of patient tumors with overexpression of FLVCR1 compared to their matched normal tissues across multiple cancer types. The number of patients showing tumor FLVCR1 overexpression relative to the total number of patients examined are indicated in the plot. Data derive from the BioXpress (Wan et al., 2015). […] Transcript abundance, normalized to beta-actin mRNA expression (for SHSY-5Y cells) or to 18s mRNA (for BTECs), is expressed as a fold increase over a calibrator sample. Data represent mean±SEM, n=4. For statistical analyses, an unpaired Student's t-test was used; ***p<0.001. (C, E) Western blot analysis of FLVCR1a expression in SHSY-5Y cells (C) and BTECs (E). Vinculin expression is shown as a loading control. Band intensities were measured by densitometry and normalized to vinculin expression. […] Values are expressed as pmol heme/mg protein. […] Values are expressed as pmol heme/mg protein. […]
# (A) Heme content in SHSY5Y cells non-treated (NT) or treated with 5 mM ALA for 15 hours. Values are expressed as pmol heme/mg protein. […] Transcript abundance, normalized to beta-actin mRNA expression, is expressed as a fold increase over a calibrator sample. […] Transcript abundance, normalized to beta-actin mRNA expression, is expressed as a fold increase over a calibrator sample. […] Band intensities were measured by densitometry and normalized to beta-actin expression. […]
# [2] = tested on: ALAS1; assay: qRT-PCR analysis of ALAS1 expression in SKCO1 cells
# [3] = tested on: C80 cells; assay: Mitochondrial ATP levels in C80 cells; conditions: FLVCR1a-silenced vs scramble shRNA C80 cells
# Text: (A, C, E) Activities of the mitochondrial electron transport chain complexes I-IV. FLVCR1a-silenced Caco2 (A), SKCO1 (C) or C80 cells (E) are compared to cells expressing a scramble shRNA. Results were expressed as nmol NAD^+/min/mg mitochondrial protein for complex I, nmol reduced cytochrome c/min/mg mitochondrial protein for complexes II-III, nmol oxidized cytochrome c/min/mg mitochondrial protein for complex IV. Data represent mean±SEM, n=3. For statistical analyses, an unpaired Student's t-test was used; *=p<0.05, **=p<0.01. (B, D, F) Mitochondrial ATP levels measured by a bioluminescent assay kit. FLVCR1a-silenced Caco2 (B), SKCO1 (D) or C80 cells (F) are compared to cells expressing a scramble shRNA. Results are expressed as nmol/mg mitochondrial proteins. […] Results were expressed as nmol NAD^+/min/mg mitochondrial protein for complex I, nmol reduced cytochrome c/min/mg mitochondrial protein for complexes II-III, nmol oxidized cytochrome c/min/mg mitochondrial protein for complex IV. […] (H) Mitochondrial ATP levels measured by a bioluminescent assay kit in Caco2 cells overexpressing FLVCR1a (indicated as FLVCR1a+) compared to cells stably transduced with an empty vector. Results are expressed as nmol/mg mitochondrial proteins. […]
# ATP levels in mitochondria extracts were assessed by the ATP Bioluminescent Assay Kit (Sigma-Aldrich, St. Louis, MO USA, catalog n° FLAA). […]
Compound,heme content inside the cells ([1]; 5 mM ALA for 15 hours vs non-treated),"ALAS1 mRNA levels ([2]; SKCO1 cells, 5 mM ALA for 24 hours vs untreated)","heme accumulation upon stimulation of de-novo heme biosynthesis ([1]; FLVCR1a-silenced vs scramble shRNA, 5 mM 5-ALA for 15 hours)",mitochondrial ATP levels [3],ALAS1 expression (qRT-PCR) ([2]; FLVCR1a-silenced vs scramble shRNA SKCO1 cells)
"Cl.NCC(=O)CCC(=O)O [5-ALA, 5-Aminolevulinic acid hydrochloride]",promoted heme accumulation inside the cells,decreased,–,–,–
"FLVCR1a shRNA: shRNA specifically down-regulating FLVCR1a without targeting FLVCR1b; pLKO.1 lentiviral clone TRCN0000059599, antisense SEQ ID No.: 2 (antisense TTGCTAATGATGCTGTACTGG; sense CCAGTACAGCATCATTAGCAA)",–,–,higher heme accumulation than controls,increased,reduced ALAS1 expression
